Experimental data taken from ChEMBL document CHEMBL1142794, “New alpha-methylene-gamma-butyrolactones with antimycobacterial properties” (2005).
In brackets after ≈: the same amount, converted by molar mass.

test system: Mycobacterium tuberculosis variant bovis; assay: In vitro minimum inhibitory concentration dissolved in DMSO against Mycobacterium bovis BCG using BACTEC 460 radiometric system; type: functional

Structure (SMILES) | MIC99 [µg/mL]
CCCC[C@@H]1OC(=O)C(=O)C1C(=O)OC (stereo not given in full) | > 25
C=C1C(=O)O[C@@H](CCCCCCCC)C1C(=O)OC (stereo not given in full) | > 25
C=C1C(=O)O[C@@H](CCCCCCCC)[C@@H]1C(=O)NNc1cccc(Cl)c1 | > 25
CCCCCCCCCC[C@@H]1OC(=O)C(=O)C1C(=O)OC (stereo not given in full) | > 25
C=C1C(=O)O[C@@H](CCCCCCCC)[C@@H]1C(=O)NCC(=O)OC | 25 (≈ 76.8 µM)
CCCCCCCC[C@@H]1OC(=O)C(=O)C1C(=O)OC (stereo not given in full) | > 25
C=CCNC(=O)[C@@H]1C(=C)C(=O)O[C@H]1CCCCCC | 12.5 (≈ 47.1 µM)
C=CCNC(=O)[C@H]1[C@H](CCCCCCCC)OC(=O)[C@@H]1C | > 25
C=CCNC(=O)[C@@H]1C(=C)C(=O)O[C@H]1CCCCCCCC | 12.5 (≈ 42.6 µM)
C=C1C(=O)O[C@@H](CCCCCCCC)[C@@H]1C(=O)NCCO | 25 (≈ 84.1 µM)
C=C1C(=O)O[C@@H](CCCCCCCC)C1C(=O)O (stereo not given in full) | > 25
C=C1C(=O)O[C@@H](CCCCCCCC)[C@@H]1C(=O)NC/C=C/CC(=O)OC | 25 (≈ 68.4 µM)
NNC(=O)c1ccncc1 [ISONIAZID] | 0.1 (≈ 0.729 µM)
C=CCNC(=O)[C@@H]1C(=C)C(=O)O[C@H]1CCCC | 12.5 (≈ 52.7 µM)
C=CCNC(=O)[C@@H]1C(=C)C(=O)O[C@H]1CCCCCCCCCCCC | 6.25 (≈ 17.9 µM)
C=C1C(=O)O[C@@H](CCCCCCCC)[C@@H]1C(=O)NCC(=O)O | > 25
C=CCNC(=O)OCCNC(=O)[C@@H]1C(=C)C(=O)O[C@H]1CCCCCCCC | > 25
C=CCNC(=O)[C@H]1[C@H](CCCCCCCC)OC(=O)[C@H]1C | > 25
C=C1C(=O)O[C@@H](CCCCCCCC)[C@@H]1C(=O)NCc1ccccc1 | 25 (≈ 72.8 µM)

test system: Mycobacterium tuberculosis variant bovis; assay: In vitro minimum inhibitory concentration dissolved in DMSO against Mycobacterium bovis BCG using BACTEC 460 radiometric system; Range=0.75-1.5 ug/mL; type: functional

Structure (SMILES) | MIC99 [µg/mL]
CCCCCCCCCCS(=O)(=O)NC(C)=O | 1.5 (≈ 5.69 µM)
